Test results as given in the supplement of paper PMC10307832.

Columns and labels:
Assay in all cases: relative viability (nuclei count vs DMSO), 5 days (fraction); higher = more cells survive
[1] = compound: Cn1c(=O)n(-c2ccc(C(C)(C)C#N)cc2)c2c3cc(-c4cnc5ccccc5c4)ccc3ncc21 [Dactolisib] + Nc1nc2[nH]cc(CCc3ccc(C(=O)N[C@@H](CCC(=O)O)C(=O)O)cc3)c2c(=O)[nH]1 [Pemetrexed] (partner 0.2 µM)
How it was run: (§1)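 For relative viability, nuclei counts in treated wells were divided by those in vehicle wells. Lung cancer cell lines had been pin-tool dosed in 1536-well plates the day after seeding and cultured for 5 days, then fixed and stained in one step (final 0.05% Triton X-100, 1% formaldehyde, 1 ug/ml Hoechst) and imaged at 4×. Doses were one drug alone or a fixed anchor-drug dose plus five library-drug doses (not always all listed) in √10 steps, and values are duplicate-plate medians.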

[2] = compound: Cn1c(=O)n(-c2ccc(C(C)(C)C#N)cc2)c2c3cc(-c4cnc5ccccc5c4)ccc3ncc21 [Dactolisib] + C[C@@H](Oc1cc(-c2cnn(C3CCNCC3)c2)cnc1N)c1c(Cl)ccc(F)c1Cl [Crizotinib] (partner 1 µM)
How it was run: as §1

[3] = compound: C1CCC(CC1)N(CCNCCC2=C3C(=C(C=C2)O)NC(=O)CO3)C(=O)CCNCCC4=CC(=C(C=C4)Cl)Cl [AZ505] + Cc1cc(Nc2cc(N3CCN(C)CC3)nc(Sc3ccc(NC(=O)C4CC4)cc3)n2)n[nH]1 [Tozasertib] (partner 0.1 µM)
How it was run: as §1

[4] = compound: Cn1c(=O)n(-c2ccc(C(C)(C)C#N)cc2)c2c3cc(-c4cnc5ccccc5c4)ccc3ncc21 [Dactolisib] + CC1(C)CCC(c2ccc(Cl)cc2)=C(CN2CCN(c3ccc(C(=O)NS(=O)(=O)c4ccc(N[C@H](CCN5CCOCC5)CSc5ccccc5)c(S(=O)(=O)C(F)(F)F)c4)cc3)CC2)C1 [Navitoclax] (partner 0.5 µM)
How it was run: as §1

Cell Line	relative viability ([1]; first compound 0.002 µM)	relative viability ([1]; first compound 0.006325 µM)	relative viability ([1]; first compound 0.02 µM)	relative viability ([1]; first compound 0.06325 µM)	relative viability ([1]; first compound 0.2 µM)	relative viability ([2]; first compound 0.002 µM)	relative viability ([2]; first compound 0.006325 µM)	relative viability ([2]; first compound 0.02 µM)	relative viability ([2]; first compound 0.06325 µM)	relative viability ([2]; first compound 0.2 µM)	relative viability ([3]; first compound 0.08 µM)	relative viability ([3]; first compound 0.253 µM)	relative viability ([3]; first compound 0.8 µM)	relative viability ([3]; first compound 2.53 µM)	relative viability ([3]; first compound 8 µM)	relative viability ([4]; first compound 0.002 µM)	relative viability ([4]; first compound 0.006325 µM)	relative viability ([4]; first compound 0.02 µM)	relative viability ([4]; first compound 0.06325 µM)	relative viability ([4]; first compound 0.2 µM)
HCC-44	0.609	0.645	0.596	0.695	0.672	0.879	0.763	0.816	0.446	0.414	0.887	0.992	0.922	0.88	1.04	1.06	0.982	1	0.266	0.3
HCC-827	0.216	0.222	0.219	0.213	0.145	0.978	0.897	0.992	0.809	0.506	0.421	0.426	0.448	0.436	0.447	1.03	1.02	1.06	0.905	0.687
NCI-H1623											0.454	0.457	0.425	0.445	0.443					
NCI-H2347	0.459	0.459	0.426	0.411	0.422	0.836	0.619	0.613	0.46	0.464	0.492				0.54	0.928	0.746	0.729	0.308	0.271
PC-14	0.0904	0.129	0.192	0.197	0.145	0.918	0.932	0.953	0.603	0.391	0.549	0.594	0.586	0.509	0.554	1.09	1.06	1.06	0.329	0.432
NCI-H1651	0.53	0.654	0.533	0.329	0.299	0.861	0.891	0.777	0.679	0.57	0.65	0.784	0.633	0.725	0.606	1.13	0.865	0.755	0.317	0.276
HARA	0.242	0.22	0.3	0.235	0.223	1.12	1.02	1.04	1.01	0.421	0.165	0.102	0.0957	0.106	0.0964	1.2	1.13	1.18	1.13	0.404
NCI-H1650	0.342	0.418	0.385	0.383	0.299	0.832	0.944	0.718	0.823	0.559	0.313	0.448	0.496	0.369	0.321	1.18	0.998	0.83	0.337	0.416
NCI-H1395	0.537	0.883	0.705	0.722	0.521						0.781	0.823	0.625	0.695	0.767	0.834	1.03	0.999	0.821	0.631
SK-LU-1	0.944	0.913	0.874	0.747	0.439	0.912	0.936	0.681	0.455	0.352	0.312	0.302	0.242	0.345	0.235	1.14	0.627	0.707	0.673	0.319
LU99A	0.152	0.197	0.2	0.178	0.18	0.548	0.446	0.335	0.272	0.231		0.306	0.279	0.286	0.332	0.704	0.689	0.291	0.173	0.185
NCI-H1355	1.08	1.03	1.02	0.861	0.65	1.18	1.09	0.99	0.488	0.326	0.57	0.534	0.586	0.534	0.527	0.959	0.836	0.86	0.335	0.234
HCC-78	0.833	0.892	0.875	0.885	0.916	0.316	0.331	0.285	0.266	0.222	0.351	0.65	0.381	0.312	0.345	0.784	0.791	0.543	0.288	0.251
NCI-H1563	0.797	0.751	0.755	0.628	0.512	0.839	0.789	0.76	0.62	0.597										
HCC-15	0.215	0.22	0.26	0.25	0.231	0.826	0.767	0.788	0.556	0.366	0.363	0.299	0.36	0.344	0.322	0.767	0.646	0.673	0.475	0.322
EKVX	0.248	0.357	0.387	0.356	0.294	0.971	0.879	0.923	0.686	0.341	0.372	0.354	0.435	0.38	0.378	0.961	0.98	0.815	0.782	0.346
NCI-H2087	0.627	0.684	0.625	0.521	0.506	0.952	0.85	1.04	0.63	0.785	0.223	0.181	0.244	0.241	0.245	0.986	0.907	1.02	0.481	0.429
